Experimental data from patent publication US8748598B2, “Analogs of 3-O-acetyl-11-keto-beta-boswellic acid” (Laila Nutraceuticals, priority 2004, dated 2014).
Converted amounts (≈) assume the structure as drawn. Read-outs that look alike come from different tables or passages of the source.

What was measured:
Jurkat = type: cell-based, human; design: minimum inhibitory concentration (MIC) Jurkat: unit not given here; settings: for minimum inhibitory concentration (MIC) Jurkat: MTT assay
Procedure: (§1) MTT [3-(4,5-dimethylthiazol-2-yl)-2,5-diphenyltetrazolium bromide] incorporation based cell proliferation assay was performed as described previously (Reference). The cytotoxic efficacy of some analogs was evaluated in different cell lines by MTT cell proliferation assay kit (Roche Applied Sciences, Germany). The assay was carried out according to the instruction provided by the vendor. Briefly, in brief, equal numbers of cells was plated in 96-well flat-bottomed plates in 100 μl of medium and were exposed to different analogs selected from 1 to 63 at various concentrations up to 10 μg/ml for a period of three days. Vehicle control culture wells received only a maximum of 0.5% DMSO. Thereafter, 0.5 mg/ml of MTT reagent was added to each well and the microplate was incubated further for 4 h at 37° C. in presence of 5% CO2. Finally, the cells were solubilized by adding solubilizing solution and allowed to incubate at 37° C. overnight. After complete solubilization of the formazan crystals the absorbance was read at 540 nm in a microplate reader (BioRad, USA). The results (mean OD±SD) obtained from quadruplicate wells were used in calculation to determine the inhibition of cell proliferation (50% of inhibitory concentration, IC50) of the test compounds.
(§2) The cytotoxic properties of some analogs were evaluated by MTT incorporation assay. The methodology of the assay procedure was the same as mentioned in example 41.

PC3M = test: Cytotoxicity MTT assay, PC3M; type: cell-based, human; design: minimum inhibitory concentration (MIC) PC3M: unit not given here; settings: for minimum inhibitory concentration (MIC) PC3M: MTT assay
HePG2 = test: Cytotoxicity MTT assay, HePG2; type: cell-based, human; design: unit not given here
Procedure: as §1, §2

MCF-7 = test: MTT cell proliferation assay, MCF-7; type: cell-based, human; settings: for Inhibition of cell proliferation MCF-7 (IC50): three days
Procedure: as §1, §2

[1] = tested on: Freund's Adjuvant-induced arthritis in Wistar Albino rats; test: Freund's adjuvant-induced arthritis, paw edema; type: in vivo; settings: 10 mg/kg daily oral for 30 days; edema 13 days after Freund's Adjuvant
Procedure: The Wistar Albino rats were divided into four groups with […] each group. The two treatment groups, each containing 6 animals, were orally supplemented with one of the two analogs namely glycinate of AKBA (10) or piperazine amide of AKBA (23) in 1% carbomethylcellulose (CMC) at a daily dose of 10 mg/kg for 30 days. The control group of animals received same volume of 1% CMC orally and a positive control group received 10 mg/kg daily dose of prednisolone for direct comparison. Following the 30 day treatment and one hour after the last dose all the animals were challenged with 0.1 mL of 1% solution of Freund's Adjuvant through a subcutaneous injection in the sub-plantar region of left hind paw. The paw volume was measured using a plethymograph. The difference between the paw volumes measured before and 13 days after the Freund's Adjuvant injection was taken as edema volume. The percentage inhibition was calculated by comparing the mean edema of the control group and treatment groups.

MDA-MB-231 = test: MTT cell proliferation assay, MDA-MB-231; type: cell-based, human; settings: for IC50 / inhibition at 10 µg/mL: Homo sapiens, MDA-MB-231; for Inhibition of cell proliferation MDA-MB-231 (IC50): three days
Procedure: as §1, §2

B16 = test: MTT cell proliferation assay, B16; type: cell-based, mouse; settings: Table 2; for Inhibition of cell proliferation B16 (IC50): three days
Procedure: as §1

A549 = test: MTT cell proliferation assay, A549; type: cell-based, human; settings: Table 2; for Inhibition of cell proliferation A549 (IC50): three days
Procedure: as §1

potato 5-lipoxygenase = test: 5-Lipoxygenase enzyme inhibitory activity; type: biochemical
Procedure: 5-Lipoxygenase enzyme inhibitory activity was measured using the method of Schewe et al. (Adv Enzymol, Vol 58, 191-272, 1986), modified by Reddanna et. al., (Methods of Enzymology, Vol 187, 268-277, 1990). The assay mixture contained 80 μM linoleic acid and sufficient amount of potato 5-lipoxygenase in 50 mM phosphate buffer (pH 6.3). The reaction was initiated by the addition of enzyme buffer mix to linoleic acid and the enzyme activity was monitored as the increase in absorbance at 234 nm. The reaction was monitored for 120 sec and the inhibitory potential of the test substances (29, 31, 33, 34, 35, 36, 39, 40, 43, 44, 46, 47, 48, 49, 50, 54, 57, 59, 62 & 63) was measured by incubating various concentrations of test substances two minutes before the addition of linoleic acid. All assays were performed three times. Percentage inhibition was calculated by comparing the slope of the curve obtained for test substances with that of the control.

A375 = test: MTT cell proliferation assay, A375; type: cell-based, human; settings: Table 2; three days
Procedure: as §1

[2] = tested on: B16 F0 melanoma xenograft; test: B16 F0 melanoma xenograft model; type: in vivo, C57B6J mice; settings: 75 mg/kg daily intra-peritoneal, twelve days
Procedure: In vivo efficacy of LI-51255 against melanoma growth was evaluated in B16 F0 melanoma xenograft model of C57B6J mice. C57B6J mice of 6 weeks age (body weight 18-22 g) were purchased from National Institute of Nutrition (NIN), Hyderabad (India). Animals study protocols were approved by Institutional Ethics Committee (IAEC). All the studies were performed in compliance with the Committee for the Purpose of Control and Supervision of Experiments on Animals (CPCSEA) guidelines and OECD guidelines. Animals were allowed free access to standard feed and provided charcoal filtered and UV exposed water ad libitum. The animals were maintained at a controlled temperature (24-26° C.), humidity (45-70%), and 12 h/12 h of light/dark cycle.
To induce the melanoma tumor formation, sub-confluent B16F0 cells were harvested by brief trypsinization and 1×10^6 cells were injected subcutaneously in 0.2 mL phosphate-buffered saline. Drug treatment was started after development of palpable tumors (3-5 days after implantation of the cells). Drugs were prepared in phosphate-buffered saline (10% DMSO, v/v) and either 75 mg/kg of DTIC or different doses of LI-51255 (10 or 20 mg/kg) was administered daily through intra-peritoneal route. Vehicle treated control animals received only 10% DMSO in phosphate buffered saline. After twelve days of treatment, the animals were sacrificed by CO2 inhalation and tumors were excised and weighed.

SMILES	minimum inhibitory concentration (MIC) Jurkat (Jurkat)	minimum inhibitory concentration (MIC) PC3M (PC3M)	minimum inhibitory concentration (MIC) HePG2 (HePG2)	IC50 values MCF-7 (MCF-7; Table 4)	% inhibition at 10 μg/ml (potato 5-lipoxygenase) [%]	% inhibition at 25 μg/ml (potato 5-lipoxygenase) [%]	Inhibition of cell proliferation B16 (IC50) (B16) [µg/mL]	Inhibition of cell proliferation MCF-7 (IC50) (MCF-7; Table 2) [µg/mL]	Inhibition of cell proliferation A375 (IC50) (A375) [µg/mL]	Inhibition of cell proliferation A549 (IC50) (A549) [µg/mL]	Inhibition of cell proliferation MDA-MB-231 (IC50) (MDA-MB-231; Table 2) [µg/mL]	further results
COc1cc(C(=O)O[C@@H]2CC[C@@]3(C)C(CC[C@]4(C)C3C(=O)C=C3C5[C@@H](C)[C@H](C)CC[C@]5(C)CC[C@]34C)[C@@]2(C)C(=O)O)cc(O)c1O (some centres unmarked) [Analog 3]	125	30	150	–	–	–	–	–	–	–	–	cytotoxicity against PC3M (PC3M): significantly more potent
C[C@@H]1CC[C@]2(C)CC[C@]3(C)C(=CC(=O)C4[C@@]5(C)CC[C@@H](OC(=O)CN)[C@](C)(C(=O)O)C5CC[C@]43C)C2[C@H]1C (some centres unmarked) [Analog 10]	50	50	>150	–	–	–	–	–	–	–	–	IC50 (MCF-7; Homo sapiens, MCF7, Table 4): 26.9 µg/mL (≈ 51 µM); inhibition of paw edema [1]: 12%; IC50 (MDA-MB-231; Table 4): 19.5 µg/mL (≈ 36.9 µM)
C[C@H](N)C(=O)O[C@@H]1CC[C@@]2(C)C(CC[C@]3(C)C2C(=O)C=C2C4[C@@H](C)[C@H](C)CC[C@]4(C)CC[C@]23C)[C@@]1(C)C(=O)O (some centres unmarked) [Analog 11]	50	30	100-150	–	–	–	–	–	–	–	–	IC50 (MCF-7; Homo sapiens, MCF7, Table 4): 33.3 µg/mL (≈ 61.5 µM); IC50 (MDA-MB-231; Table 4): 28.9 µg/mL (≈ 53.4 µM)
CC(=O)OC1CC[C@@]2(C)C(CC[C@]3(C)C2C(=O)C=C2C4[C@@H](C)[C@H](C)CC[C@]4(C)CC[C@]23C)[C@@]1(C)C(N)=O (some centres unmarked) [Analog 19]	10	>150	>150	IC50 at 30.05 μg/ml	–	–	–	–	–	–	–	cytotoxicity against leukemia cells (Jurkat): highly potent selectively; Percentage Inhibition of cell proliferation MDA-MB-231 (MDA-MB-231; Table 4, 10 μg/ml): 38.72% at 10 μg/ml
CC(=O)O[C@@H]1CC[C@@]2(C)C(CC[C@]3(C)C2C(=O)C=C2C4[C@@H](C)[C@H](C)CC[C@]4(C)CC[C@]23C)[C@@]1(C)C(=O)NN (some centres unmarked) [Analog 20]	50	10	40	–	–	–	–	–	–	–	–	inhibition at 10 µg/mL (MCF-7; Homo sapiens, MCF7, Table 4, 10 μg/ml, read-out: Percentage Inhibition of cell proliferation MCF-7): 44%; cytotoxicity against PC3M (PC3M): significantly more potent
CC(=O)O[C@@H]1CC[C@@]2(C)C(CC[C@]3(C)C2C(=O)C=C2C4[C@@H](C)[C@H](C)CC[C@]4(C)CC[C@]23C)[C@@]1(C)C(=O)N(C)C (some centres unmarked) [Analog 31]	–	–	–	–	18.57	36.73	–	–	–	–	–	inhibition at 10 µg/mL (B16; Mus musculus, B16, 10 ug/ml): 10%; inhibition at 10 µg/mL (A549; Homo sapiens, A549, 10 ug/ml): 17%; inhibition at 10 µg/mL (MDA-MB-231; Table 2, 10 ug/ml, read-out: Inhibition of cell proliferation MDA-MB-231, % at 10 ug/ml): 46%; inhibition at 10 µg/mL (MDA-MB-231; Table 4, 10 μg/ml, read-out: Percentage Inhibition of cell proliferation MDA-MB-231): 46%
CC(=O)O[C@@H]1CC[C@@]2(C)C(CC[C@]3(C)C2C(=O)C=C2C4[C@@H](C)[C@H](C)CC[C@]4(C)CC[C@]23C)[C@@]1(C)C(=O)NCCCCCCN (some centres unmarked) [Analog 33]	–	–	–	–	24.66	52.98	9.1	–	–	–	–	Inhibition of cell proliferation MCF-7, % at 10 ug/ml (MCF-7; Table 2, 10 ug/ml): 36% at 10; Percentage Inhibition of cell proliferation MCF-7 (MCF-7; Table 4, 10 μg/ml): 36% at 10 μg/ml; Inhibition of cell proliferation A549, % at 10 ug/ml (A549; 10 ug/ml): 24% at 10
CC(=O)O[C@@H]1CC[C@@]2(C)C(CC[C@]3(C)C2C(=O)C=C2C4[C@@H](C)[C@H](C)CC[C@]4(C)CC[C@]23C)[C@@]1(C)C(=O)NCCCCN (some centres unmarked) [Analog 34]	–	–	–	IC50 at 13.7 μg/ml	16.31	29.40	3.84	13.7	4.12	10.5	6.38	IC50 values MDA-MB-231 (MDA-MB-231; Table 4): IC50 at 6.38 μg/ml
CC(=O)O[C@@H]1CC[C@@]2(C)C(CC[C@]3(C)C2C(=O)C=C2C4[C@@H](C)[C@H](C)CC[C@]4(C)CC[C@]23C)[C@@]1(C)C(=O)NCCCCCCCN (some centres unmarked) [Analog 35]	–	–	–	IC50 at 9.7 μg/ml	24.92	52.48	2.82	9.7	2.76	5.86	5.14	IC50 values MDA-MB-231 (MDA-MB-231; Table 4): IC50 at 5.14 μg/ml
C[C@@H]1CC[C@]2(C)CC[C@]3(C)C(=CC(=O)C4[C@@]5(C)CC[C@@H](O)[C@](C)(C(=O)N6CCOCC6)C5CC[C@]43C)C2[C@H]1C (some centres unmarked) [Analog 36]	–	–	–	IC50 at 8.7 μg/ml	17.83	34.40	2.44	8.7	2.75	4.78	3.4	IC50 values MDA-MB-231 (MDA-MB-231; Table 4): IC50 at 3.4 μg/ml
CC(=O)O[C@@H]1CC[C@@]2(C)C(CC[C@]3(C)C2C(=O)C=C2C4[C@@H](C)[C@H](C)CC[C@]4(C)CC[C@]23C)[C@@]1(C)C(=O)NCCNC=O (some centres unmarked) [Analog 48]	–	–	–	–	22.78	54.18	4.35	12.5	3.53	6.83	4.98	Percentage Inhibition of cell proliferation MDA-MB-231 (MDA-MB-231; Table 4, 10 μg/ml): 8.8% at 10 μg/ml
CN(C)/N=N/c1[nH]cnc1C(N)=O [DTIC, Dacarbazine, reference compound]	–	–	–	–	–	–	–	–	–	–	–	% reduction of tumor burden (w.r.t control) [2]: 33.613%; Average weight of tumor [2]: 4.175 gm; % reduction of tumor burden (w.r.t control) ([2]; listed as Dacarbazine): 33.6%
C[C@]12C=CC(=O)C=C1CC[C@@H]1[C@@H]2[C@@H](O)C[C@@]2(C)[C@H]1CC[C@]2(O)C(=O)CO [prednisolone, reference compound]	–	–	–	–	–	–	–	–	–	–	–	inhibition of paw edema [1]: 16.8%
